Measurements as given in ChEMBL document CHEMBL1142113, “Limonoids from the seeds of the marine mangrove Xylocarpus granatum” (J Nat Prod, 2007).

Tests used:
P388 = test: Cytotoxicity against mouse P388 cells by MTT method; type: cell-based; conditions: for Activity: mouse, p388; for IC50: Mus musculus, P388
A549 = test: Cytotoxicity against human A549 cells by SRB method; type: cell-based; conditions: for Activity: human, a549; for IC50: Homo sapiens, A549

Compound	Activity (P388)	Activity (A549)	IC50 (P388)	IC50 (A549)
C/C=C(\C)C(=O)O[C@@H]1[C@@H]2[C@H]3O[C@@]34[C@H](CC[C@@]3(C)[C@H](c5ccoc5)OC(=O)C[C@@]43O)[C@]3(C)[C@@H](CC(=O)OC)[C@]1(C)CO[C@]23O [GRANAXYLOCARPIN C]	Not Active	Not Active		
COC(=O)C1=CC[C@@]23CC[C@@H]([C@@](C)(/C=C/C=C(\C)C(=O)O)OC2=O)[C@@]3(OC(C)=O)CC1 [PSEUDOLARIC ACID B]			0.74 µM	
COC(=O)[C@H](O)[C@H]1[C@]2(C)C[C@]3(OC(C)=O)[C@H]([C@H]2OC(C)=O)[C@@H](OC(C)=O)[C@]2(O)[C@@H]4CC(=O)O[C@@H](c5ccoc5)[C@]4(C)[C@@H](OC(C)=O)C[C@@H]2[C@]13C [GRANAXYLOCARPIN D]	Not Active	Not Active		
COC(=O)[C@H](OC(C)=O)[C@H]1[C@]2(C)C[C@]3(OC(C)=O)[C@H]([C@H]2OC(C)=O)[C@@H](OC(C)=O)[C@]2(O)[C@@H]4CC(=O)O[C@@H](c5ccoc5)[C@]4(C)CC[C@@H]2[C@]13C [GRANAXYLOCARPIN E]	Not Active	Not Active		
C/C=C(\C)C(=O)O[C@H](C1=CC(C)(C)[C@H](CC(=O)OC)[C@@H](C)C1=O)[C@@]1(O)C(=O)CC[C@]2(C)C1=CC(=O)O[C@H]2c1ccoc1 [GRANAXYLOCARPIN B]			4.9 µM	> 10 µM
CCC(C)C(=O)O[C@@H]1C([C@@H](OC(C)=O)[C@@]2(O)C(=O)CC[C@]3(C)C2=CC(=O)O[C@H]3c2ccoc2)C(=O)[C@H](C)[C@@H](CC(=O)OC)C1(C)C (stereo partly specified) [GRANAXYLOCARPIN A]			9.3 µM	> 10 µM
